In patent US20100150944A1, “METHODS AND COMPOSITIONS FOR DIAGNOSIS AND TREATMENT OF DEPRESSION AND ANXIETY” (MODGENE, LLC, priority 2007, published 2010):

What was measured:
DBA/2J mice [1] = conditions: baseline 100 seconds; cited from earlier work
RSK2 = RSK2 (Homo sapiens, UniProt P51812); conditions: cited from earlier work
C57BL/6J mice [2] = assay: forced-swim test, C57BL/6J mice; type: in vivo, mouse; conditions: for immobility in forced-swim test: last 4 minutes of 6-minute test
Experimental: Briefly, in the Porsolt forced swim test, swim sessions are conducted by placing animals in containers with a level of water selected to be deep enough so that the animal cannot touch the bottom with its hind limbs or tail, nor can it escape. Two swim sessions are conducted, an initial 15 minute pretest one day prior to administration of the antidepressant drug and a second 5 minute test after administration of the drug (e.g., infusion of the drug into the midbrain) is begun. Each animal's 5 minute test sessions are videotaped for scoring later. The amount of time the animal spends active (swimming, exploring or trying to escape) and the time the rat is immobile (not struggling and making only those movements necessary to keep its head above water) is measured. Drugs with anti-depressant like activity decrease the immobility time.
(§1) As described above, the murine responses in forced swim and tail suspension tests provides a model for determining depression. We tested C57BL/6J and DBA/2J mice in the forced-swim and tail-suspension tests. In the forced-swim test, mice were gently placed in a clear plastic cylinder, diameter of 16 cm, height 25 cm, filled with 10 cm of clear water at 25° C. Test duration was 6 minutes and immobility, defined as the absence of all movement except minor movement required for the mouse to keep its head above the surface, was measured during the last 4 minutes. In the tail-suspension test, mice were suspended from a metal rod mounted 50 cm above the surface by fastening the tail to the rod with adhesive tape. The duration of the test was 6 minutes and immobility, defined as the absence of all but respiratory movements, was measured during the last 4 minutes. During the last 4 minutes of a 6-minute forced swim, unmedicated inbred C57BL/6J mice spent 152 seconds of the possible 240 seconds immobile (FIG. 2). In contrast, inbred DBA/2J mice had baseline (unmedicated) immobilities of 47 seconds (see FIG. 2). […] We investigated the hypothesis that the differences between these two inbred mouse lines that result in differing baseline immobilities in the forced-swim test at least in part arise from differences in the amount of mRNA that accumulates from specific genes.
We purchased some of the compound (Toronto Research Chemicals Inc., 2 Brisbane Rd., North York, Ontario, Canada M3J 2J8) and dissolved it in phosphate-buffered saline (PBS) containing 2.5 percent methanol.
When plain PBS/methanol solution (without 3Ac-SL0101) was administered to C57BL/6J mice, their immobility was 127 seconds. When the solution containing the 3Ac-SL0101 compound was administered in a very low dose, their immobility was reduced to 78 seconds, indicative of an antidepressant-like effect. […] When the compound was administered to DBA/2J mice, it was effective at an approximately 10-fold lower dose than in C57BL/6J mice, highly consistent with the notion that it is functioning by reducing the activity of rpS6.

DBA/2J mice [3] = assay: forced-swim test, DBA/2J mice; type: in vivo, mouse; conditions: DBA/2J mice versus C57BL/6J mice
Experimental: as §1, with “genes. […]” for “genes.”

mice = assay: tail-suspension test; conditions: mouse, in vivo
Experimental: An additional procedure for monitoring the effects of antidepressants involves suspending the mice by the tail from a lever and recording movements of the animal. The total duration of the test (usually about 6 minutes) can be divided into periods of agitation and immobility. Antidepressants will generally decrease the duration of immobility (Stem et al., Psychopharmacology 85(3) 367-70). A computerized version of this test, referred to as […]-TST has been developed and is well known to those of skill in that art as a primary screening test for antidepressant activity (Stem et al., Prog. Neuropsychpharmacol. Biol. Psychiatry 11(6)659-671, 1987). Additional devices for monitoring depression also are known to those of skill in the art (Nomura et al., Yakubutsu Seishiiz Kodo 12(5)207-13, 1992).
As described above, the murine responses in forced swim and tail suspension tests provides a model for determining depression. We tested C57BL/6J and DBA/2J mice in the forced-swim and tail-suspension tests. […] Test duration was 6 minutes and immobility, defined as the absence of all movement except minor movement required for the mouse to keep its head above the surface, was measured during the last 4 minutes. […] The duration of the test was 6 minutes and immobility, defined as the absence of all but respiratory movements, was measured during the last 4 minutes. […]

[4] = test system: p90 ribosomal S6 kinase, or RSK; conditions: cultured tumor cells; cited from earlier work
p90 RSK = conditions: cited from earlier work
C57BL/6J mice [5] = conditions: 10 mg/kg, last 4 minutes of 6-minute forced swim, unmedicated 143 seconds; cited from earlier work

Sequence of RSK2 (P51812 whole entry): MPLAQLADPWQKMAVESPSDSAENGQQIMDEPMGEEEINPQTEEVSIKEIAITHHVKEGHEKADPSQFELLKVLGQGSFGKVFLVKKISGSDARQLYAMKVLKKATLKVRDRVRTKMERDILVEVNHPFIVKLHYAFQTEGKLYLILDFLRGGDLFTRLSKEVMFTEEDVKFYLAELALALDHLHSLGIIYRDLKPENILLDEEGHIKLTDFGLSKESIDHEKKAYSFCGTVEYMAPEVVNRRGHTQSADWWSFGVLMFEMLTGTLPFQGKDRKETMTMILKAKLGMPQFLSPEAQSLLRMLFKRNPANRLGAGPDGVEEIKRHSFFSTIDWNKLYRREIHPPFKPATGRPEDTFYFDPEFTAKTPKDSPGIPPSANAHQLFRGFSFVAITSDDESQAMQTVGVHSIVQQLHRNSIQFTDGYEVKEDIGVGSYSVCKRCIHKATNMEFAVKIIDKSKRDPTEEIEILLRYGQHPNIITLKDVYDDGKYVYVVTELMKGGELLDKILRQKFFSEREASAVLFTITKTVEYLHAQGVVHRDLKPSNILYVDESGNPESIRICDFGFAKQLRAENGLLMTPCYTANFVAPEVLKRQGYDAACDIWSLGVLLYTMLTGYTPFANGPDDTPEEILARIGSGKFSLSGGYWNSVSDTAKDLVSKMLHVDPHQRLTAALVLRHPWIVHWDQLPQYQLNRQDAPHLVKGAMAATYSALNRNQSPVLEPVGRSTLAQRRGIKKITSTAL

CNCCC(Oc1ccc(C(F)(F)F)cc1)c1ccccc1 (stereo not shown) [fluoxetine]
immobility in forced swim (DBA/2J mice [1]): 50 s

O=c1c(O)c(-c2ccc(O)cc2)oc2cc(O)cc(O)c12 [kaempferol]
inhibition of RSK2 (RSK2): inhibitor of the RSK2
immobility time in forced-swim test (C57BL/6J mice [2]; dose dependent manner, within minutes after intraperitoneal injection): reduce immobility time

CC(=O)O[C@@H]1[C@@H](OC(C)=O)[C@H](C)O[C@@H](Oc2c(-c3ccc(O)cc3)oc3cc(O)cc(O)c3c2=O)[C@@H]1OC(C)=O [3Ac-SL0101]
effective dose in DBA/2J mice relative to C57BL/6J mice (DBA/2J mice [3]): approximately 10 fold lower dose
immobility in tail-suspension test (mice): reduced immobility
immobility in forced-swim test (C57BL/6J mice [2]; 20-fold higher dose): 0 s
dose response of immobility in forced-swim test (C57BL/6J mice [2]; varying dosages, FIG. 3): monotonic dose-response effect
immobility in forced-swim test (C57BL/6J mice [2]; very low dose, PBS/methanol control 127 seconds): 78 s
inhibition of RSK activity [4]: inhibits the activity of this kinase

CC(C)CCN1c2nc(Nc3cc(F)c(O)c(F)c3)ncc2N(C)C(=O)C1C (stereo not shown) [BI-D1870]
inhibition of p90 RSK (p90 RSK): specific inhibitor of the p90 RSK
time of immobility in forced swim test (C57BL/6J mice [2]; FIG. 4): substantial reduction

CNCCCN1c2ccccc2CCc2ccccc21 [desipramine]
immobility in forced swim (C57BL/6J mice [5]): 100 s
immobility in forced swim (DBA/2J mice [1]): 50 s
